Reference: patent US20220339100A1, “THERMOSENSITIVE MODIFIED CHITIN HYDROGEL LOCAL ANESTHETIC-LOADED SUSTAINED-RELEASE ANALGESIA SYSTEM, PREPARATION METHOD AND USE” (Wuhan University, priority 2021, published 2022)
Where a name gives a salt, the structure may show the parent alone.

Legend:
[1] = test system: human neuroblastoma cell lines (SH-SY5Y); type: cell-based; conditions: 24 h, 5 mM
Protocol: An in-vitro cytotoxicity test was performed on a ropivacaine-containing drug-loaded sustained-release system by using neuroblastoma cell line (SH-SY5Y) cells. Ropivacaine hydrochloride was dissolved into a PBS buffer to prepare a 10 mM ropivacaine solution, and the ropivacaine solution was diluted with a cell culture medium to prepare a cell culture medium with a concentration gradient of 0.5-5 mM in ropivacaine group; cell culture medium solutions containing HPCH2% and HA0.5% as well as a ropivacaine concentration of 10 mM were prepared at a low temperature and gelled at 37° C., and then a cell culture medium containing corresponding gel sustained-release systems and a ropivacaine concentration of 10 mM was prepared. SH-SY5Y cells were inoculated in a 96 well plate at a 10^4/mL cell density and normally cultured in a constant-temperature incubator for 24 h. Then, the above cell culture mediums containing pure drugs and drug gels were respectively added to be cultured for 24 h. The relative living cell numbers were tested by a Cell Counting Kit 8 (CCK-8) assay (FIG. 2).

sciatic nerve of SD rats = assay: ultrasound-guided sciatic nerve block model, sensory block by hot plate method; type: in vivo, rat; conditions: 0.5 mL around sciatic nerve
Protocol: In order to evaluate the in-vivo analgesic effect of the drug-loaded sustained-release system, an ultrasound-guided sciatic nerve block model was used. Various sustained-release injection formulations containing ropivacaine were injected around the sciatic nerve of the right hind limb of SD rats under the guidance of ultrasound, and the nerve blocking effect was observed. The rats were anesthetized with 2% isoflurane and placed in a prone position. […] Then, the sensory and motor block of the right hind limbs of the rats were evaluated by a hot plate method and motor block 4-point method, respectively. […]
Operation with hot plate method: the rats were placed on a preheated metal surface (55±0.5° C.), which was surrounded by a cylindrical Plexiglas wall (20 cm high and 28 cm in diameter) to limit the movement of the rats. […] This time was recorded as the basic thermal latency (baseline) time of rats (tested 2 days before the beginning of the experiment), which was generally about 3-5 s, and the rats with too short or too long baseline time were excluded. In order to prevent tissue injury, if the rats still have no pain response after 20 s, the rats were taken out and the time was recorded as 20 s. […] The test data were expressed as percentage of maximum possible effect (MPE %) with the calculation formula as follows: […]

[2] = in-vitro cumulative drug release in PBS (dialysis bag, UV 263 nm); type: physicochemical; conditions: within 6 hours, 37° C., 100 rpm, same drug content as 2.0% system
Protocol: 1 ml of the above dispersion (suspension) was sucked with a precision syringe at 4° C. and put into a dialysis bag (molecular weight cut off: 8000-14000 Da), then the dialysis bag was put into a centrifuge tube which was equipped with 30 ml of PBS solution and placed in a 37° C. constant-temperature water-bath shaker that was vibrated at 100 rpm, samples were taken at different time. 2 ml of PBS solution was taken every time to be used as a sample supplemented with 2 mL of fresh PBS solution, the taken sample was analyzed by ultraviolet-visible spectrophotometry, the PBS solution was used as blank control, and a wavelength was detected as 263 nm. According to a standard curve of ropivacaine, the drug concentration of ropivacaine was calculated and a cumulative release curve was plotted. Three samples in each group were set for repetition. FIG. 1 is an in-vitro cumulative release curve of 2.0% R-HPCH-HA hydrogel sustained-release system represented by a 2.0% ropivacaine hydrochloride-loaded, wherein pure drugs (R) with the same drug content and an HPCH carrier (no hyaluronic acid, R-HPCH group) alone with the same drug content are used as control group. […] Thus, the injectable hydrogel drug delivery system comprising auxiliary component hyaluronic acid is benefit to the long-lasting local analgesia.

CCCN1CCCC[C@H]1C(=O)Nc1c(C)cccc1C [ropivacaine, ropivacaine hydrochloride]
cell viability [1]: 37.2% | time after which MPE value came back to the normal baseline (sciatic nerve of SD rats): 6 h | cumulative release rate of ropivacaine [2]: exceeds 80%
